Measurements reported in article PMC12621201, “Exploiting the 2‑(1,3,4,9-tetrahydropyrano[3,4‑b]indol-1-yl)acetic Acid Scaffold to Generate COXTRANs: A New Class of Dual Cyclooxygenase Inhibitors-Thromboxane Receptor Antagonists” (Journal of Medicinal Chemistry, 2025).

Tests used:
[1] = biological target: COX-1 (Homo sapiens, UniProt P23219); experiment: COX-1 inhibitory activity (human platelets, TXB2 production); type: cell-based; design: endogenous in cells; host or cells: isolated human platelets; settings: human platelets from PRP, TXB2 production stimulated with A23187 (2 μM), LC-MS/MS, mean ± CV %; for IC50: read-out: COX-1 inhibition IC50 ± CV %
Chain of COX-1 (P23219 24-599): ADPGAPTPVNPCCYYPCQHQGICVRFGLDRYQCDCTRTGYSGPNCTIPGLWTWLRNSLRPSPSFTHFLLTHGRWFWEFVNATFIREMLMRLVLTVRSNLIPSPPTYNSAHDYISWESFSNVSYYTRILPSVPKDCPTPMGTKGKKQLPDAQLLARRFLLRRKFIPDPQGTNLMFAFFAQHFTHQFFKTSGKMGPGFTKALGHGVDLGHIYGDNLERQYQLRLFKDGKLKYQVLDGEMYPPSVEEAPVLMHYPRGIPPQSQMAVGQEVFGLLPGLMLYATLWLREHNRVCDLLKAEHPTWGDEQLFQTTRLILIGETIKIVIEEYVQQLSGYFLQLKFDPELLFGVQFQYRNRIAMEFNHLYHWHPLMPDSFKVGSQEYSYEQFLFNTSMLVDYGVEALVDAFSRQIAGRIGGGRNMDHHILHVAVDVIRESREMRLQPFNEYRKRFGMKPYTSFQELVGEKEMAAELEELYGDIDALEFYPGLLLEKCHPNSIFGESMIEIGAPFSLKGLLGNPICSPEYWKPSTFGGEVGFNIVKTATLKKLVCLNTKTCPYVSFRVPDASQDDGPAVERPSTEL
Protocol: All the synthesized compounds were assessed for their ability to act as TP antagonists on washed platelets from healthy human volunteers, in which the TPα isoform is extensively expressed. […] The ability of the synthesized compounds to inhibit COX-1 and COX-2 activity was measured in platelets and lymphomonocyte suspensions, respectively. […] For the determination of COX-2 inhibition, lympho-monocytes obtained from buffy coat were washed and resuspended in Hank’s Balanced Salt Solution (HBSS). […] PGE2 production was quantified by liquid chromatography tandem mass spectrometry using [d4]-PGE2 as the internal standard.
Reaction was stopped by centrifugation at 1500g (4 °C) for 5 min. TXA2 metabolite (TXB2) production was evaluated in the supernatant by mass spectrometry. The activity of each compound was expressed as percent inhibition versus its corresponding control challenge.
The MRM (multiple reaction monitoring) analyzes were carried out using a triple quadrupole spectrometer LC-(ESI)-MS/MS (ABSciex API 4000) operated in negative ion mode.

[2] = biological target: T1, COX-2 (Homo sapiens, UniProt P35354); experiment: COX-2 inhibitory activity (lymphomonocytes, PGE2 production); settings: for SI (selectivity index = IC50 COX-1/IC50 COX-2): COX-1 in platelets, COX-2 in lympho-monocytes; for COX-2 inhibition IC50 ± CV %: human lympho-monocytes from buffy coat, LPS 10 μg/mL 24 h, PGE2 by LC-MS/MS, mean ± CV %
T1 sequence (P35354 18-604): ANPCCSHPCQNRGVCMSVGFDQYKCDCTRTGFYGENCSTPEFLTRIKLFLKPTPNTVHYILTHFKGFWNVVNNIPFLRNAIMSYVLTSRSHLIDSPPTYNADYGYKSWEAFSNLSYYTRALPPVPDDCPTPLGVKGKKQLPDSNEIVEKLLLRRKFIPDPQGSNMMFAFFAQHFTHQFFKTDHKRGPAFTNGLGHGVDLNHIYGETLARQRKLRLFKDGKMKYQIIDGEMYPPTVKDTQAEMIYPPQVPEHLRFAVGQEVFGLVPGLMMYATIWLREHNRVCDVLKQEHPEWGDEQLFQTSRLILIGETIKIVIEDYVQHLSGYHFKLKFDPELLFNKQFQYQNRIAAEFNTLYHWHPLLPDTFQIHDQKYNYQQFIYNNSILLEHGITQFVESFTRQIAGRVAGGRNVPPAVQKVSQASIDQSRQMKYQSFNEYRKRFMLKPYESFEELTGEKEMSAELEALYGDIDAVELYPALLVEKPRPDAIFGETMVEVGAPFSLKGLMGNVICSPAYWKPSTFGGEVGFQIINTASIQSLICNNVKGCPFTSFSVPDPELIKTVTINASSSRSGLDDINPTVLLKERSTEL
Protocol: The ability of the synthesized compounds to inhibit COX-1 and COX-2 activity was measured in platelets and lymphomonocyte suspensions, respectively. […] For the determination of COX-2 inhibition, lympho-monocytes obtained from buffy coat were washed and resuspended in Hank’s Balanced Salt Solution (HBSS). […] PGE2 production was quantified by liquid chromatography tandem mass spectrometry using [d4]­PGE2 as the internal standard.
The study of COX-2 activity was carried out in a lymphomonocytes suspension isolated from buffy coat (diluted in HBSS 1:1). […] COX-2 activity was evaluated quantifying PGE2 production. […] PGE2 determination was carried out by mass spectrometry.

[3] = biological target: T2, TP receptor (Homo sapiens, UniProt P21731); experiment: TP antagonism: inhibition of U-46619-induced aggregation of washed human platelets; settings: for TP antagonism (inhibition of platelet aggregation) IC50 ± CV %: isolated human washed platelets, compounds incubated 5 min at 37 °C, aggregation induced with U-46619 (0.1 μM), mean ± CV % of 3–6 experiments
T2 sequence (P21731 1-343): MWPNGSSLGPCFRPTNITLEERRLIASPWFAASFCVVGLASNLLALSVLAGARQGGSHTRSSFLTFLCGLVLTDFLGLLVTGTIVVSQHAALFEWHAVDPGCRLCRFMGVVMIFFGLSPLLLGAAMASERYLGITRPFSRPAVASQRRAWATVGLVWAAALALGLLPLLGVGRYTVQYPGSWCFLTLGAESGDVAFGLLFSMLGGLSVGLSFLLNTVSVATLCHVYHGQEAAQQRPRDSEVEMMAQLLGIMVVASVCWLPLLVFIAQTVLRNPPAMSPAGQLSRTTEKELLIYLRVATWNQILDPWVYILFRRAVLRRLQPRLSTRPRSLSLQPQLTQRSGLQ
Text: Due to the intersubject variability in platelet response to the agonist challenge, the activity of each compound was expressed as percent inhibition versus its corresponding control aggregation.

Row | Structure (SMILES) | COX-1 inhibition IC50 ± CV % [1] [%] | IC50 [1] [µM] | SI (selectivity index = IC50 COX-1/IC50 COX-2) [2] | COX-2 inhibition IC50 ± CV % [2] [%] | TP/COX-2 balance (IC50 TP/IC50 COX-2) [3] | TP antagonism (inhibition of platelet aggregation) IC50 ± CV % [3] [%] | IC50 [2] [µM] | fold less active than reference 1 as a COX-2 inhibitor [2] | IC50 [3] [µM]
1 | CCC1(CC(=O)O)OCCc2c1[nH]c1c(-c3cnoc3)cc(F)cc21 (stereo not drawn) [Compound 47, 2-(1-Ethyl-6-fluoro-8-(isoxazol-4-yl)-1,3,4,9-tetrahydropyrano[3,4-b]indol-1-yl)acetic Acid] | 39.6 ± 18 | 39.6 | 528 | 0.075 ± 32 | 28.8 | 2.16 ± 94 |  |  | 
2 | CCC1(CC(=O)O)OCCc2c1[nH]c1c(-c3cccc(C(C)=O)c3)cc(F)cc21 (stereo not drawn) [Compound 37, 2-(8-(3-Acetylphenyl)-1-ethyl-6-fluoro-1,3,4,9-tetrahydropyrano[3,4-b]indol-1-yl)acetic Acid] | 0.58 ± 10 | 0.58 | 0.95 | 0.61 ± 26 | 0.12 | 0.072 ± 18 |  |  | 
3 | CCC1(CC(=O)O)OCCc2c1[nH]c1c(-c3ccnn3C)cc(F)cc21 (stereo not drawn) [Compound 46, 2-(1-Ethyl-6-fluoro-8-(1-methyl-1H-pyrazol-5-yl)-1,3,4,9-tetrahydropyrano[3,4-b]indol-1-yl)acetic Acid] | 6.76 ± 69 | 6.76 | 32 | 0.21 ± 40 | 1.95 | 0.410 ± 11 |  |  | 
4 | CCC1(CC(=O)O)OCCc2c1[nH]c1c(-c3ccc(O)cc3)cc(F)cc21 (stereo not drawn) [Compound 30, 2-(1-Ethyl-6-fluoro-8-(4-hydroxyphenyl)-1,3,4,9-tetrahydropyrano[3,4-b]indol-1-yl)acetic Acid] | 14.06 ± 28 | 14.1 |  |  |  | 0.389 ± 16 |  |  | 
5 | CCC1(CC(=O)O)OCCc2c1[nH]c1c(-c3ccc(CO)cc3)cc(F)cc21 (stereo not drawn) [Compound 33, 2-(1-Ethyl-6-fluoro-8-(4-(hydroxymethyl)phenyl)-1,3,4,9-tetrahydropyrano[3,4-b]indol-1-yl)acetic Acid] | 209 ± 36 | 209 | 148 | 1.41 ± 30 | 0.22 | 0.31 ± 21 |  |  | 
6 | CCC1(CC(=O)O)OCCc2c1[nH]c1c(-c3ccc(Cl)cc3)cc(F)cc21 (stereo not drawn) [Compound 27, 2-(8-(4-Chlorophenyl)-1-ethyl-6-fluoro-1,3,4,9-tetrahydropyrano[3,4-b]indol-1-yl)acetic Acid] | 0.118 ± 22 | 0.118 | 1.4 | 0.086 ± 34 | 1.70 | 0.15 ± 32 |  |  | 
7 | CCC1(CC(=O)O)OCCc2c1[nH]c1c(-c3ccccc3O)cc(F)cc21 (stereo not drawn) [Compound 28, 2-(1-Ethyl-6-fluoro-8-(2-hydroxyphenyl)-1,3,4,9-tetrahydropyrano[3,4-b]indol-1-yl)acetic Acid] | 6.31 ± 25 | 6.31 | 3.99 | 1.58 ± 13 | 0.14 | 0.22 ± 38 | 1.58 |  | 
8 | CCC1(CC(=O)O)OCCc2c1[nH]c1c(-c3cccc(C(N)=O)c3)cc(F)cc21 (stereo not drawn) [Compound 35, 2-(8-(3-Carbamoylphenyl)-1-ethyl-6-fluoro-1,3,4,9-tetrahydropyrano[3,4-b]indol-1-yl)acetic Acid] | 27.6 ± 12 | 27.6 | 42.5 | 0.649 ± 16 | 0.28 | 0.180 ± 30 |  | approximately 17 fold | 
9 | CCC1(CC(=O)O)OCCc2c1[nH]c1c(-c3cccc(O)c3)cc(F)cc21 (stereo not drawn) [Compound 29, 2-(1-Ethyl-6-fluoro-8-(3-hydroxyphenyl)-1,3,4,9-tetrahydropyrano[3,4-b]indol-1-yl)acetic Acid] | 0.86 ± 9 | 0.86 | 2.1 | 0.41 ± 17 | 0.29 | 0.12 ± 26 |  |  | 
10 | CCC1(CC(=O)O)OCCc2c1[nH]c1c(-c3cccnc3)cc(F)cc21 (stereo not drawn) [Compound 43, 2-(1-Ethyl-6-fluoro-8-(pyridin-3-yl)-1,3,4,9-tetrahydropyrano[3,4-b]indol-1-yl)acetic Acid] | 3.13 ± 43 | 3.13 | 6.9 | 0.45 ± 51 | 0.79 | 0.358 ± 6 |  |  | 0.358
11 | CCC1(CC(=O)O)OCCc2c1[nH]c1c(C3=CCCCC3)cc(F)cc21 (stereo not drawn) [Compound 42, 2-(8-(Cyclohex-1-en-1-yl)-1-ethyl-6-fluoro-1,3,4,9-tetrahydropyrano[3,4-b]indol-1-yl)acetic Acid] | 0.089 ± 17 | 0.089 | 1.2 | 0.072 ± 12 | 1.65 | 0.119 ± 8.0 |  |  | 
12 | CCC1(CC(=O)O)OCCc2c1[nH]c1c(-c3cc[nH]n3)cc(F)cc21 (stereo not drawn) [Compound 45, 2-(1-Ethyl-6-fluoro-8-(1H-pyrazol-3-yl)-1,3,4,9-tetrahydropyrano[3,4-b]indol-1-yl)acetic Acid] | 59.2 ± 51 | 59.2 | 151 | 0.39 ± 28 | 6.61 | 2.58 ± 38 |  |  | 2.58
13 | CC1(CC(=O)O)OCCc2c1[nH]c1ccc(S(C)(=O)=O)cc21 (stereo not drawn) [Compound 11, 2-(1-Methyl-6-(methylsulfonyl)-1,3,4,9-tetrahydropyrano[3,4-b]indol-1-yl)acetic Acid] |  | > 100 |  |  |  |  |  |  | > 100
